The source of these data is patent publication US20040147788A1, “Stilbene derivatives and their use as aryl hydrocarbon receptor antagonistic ligands” (priority 2002, published 2004).

Series [1] concerns the target T1, Aryl Hydrocarbon Receptor (AhR) (Oryctolagus cuniculus, UniProt O02747).
T1 construct: from tissue; host or cells: female New Zealand rabbit liver cytosol
T1 sequence (O02747 1-847): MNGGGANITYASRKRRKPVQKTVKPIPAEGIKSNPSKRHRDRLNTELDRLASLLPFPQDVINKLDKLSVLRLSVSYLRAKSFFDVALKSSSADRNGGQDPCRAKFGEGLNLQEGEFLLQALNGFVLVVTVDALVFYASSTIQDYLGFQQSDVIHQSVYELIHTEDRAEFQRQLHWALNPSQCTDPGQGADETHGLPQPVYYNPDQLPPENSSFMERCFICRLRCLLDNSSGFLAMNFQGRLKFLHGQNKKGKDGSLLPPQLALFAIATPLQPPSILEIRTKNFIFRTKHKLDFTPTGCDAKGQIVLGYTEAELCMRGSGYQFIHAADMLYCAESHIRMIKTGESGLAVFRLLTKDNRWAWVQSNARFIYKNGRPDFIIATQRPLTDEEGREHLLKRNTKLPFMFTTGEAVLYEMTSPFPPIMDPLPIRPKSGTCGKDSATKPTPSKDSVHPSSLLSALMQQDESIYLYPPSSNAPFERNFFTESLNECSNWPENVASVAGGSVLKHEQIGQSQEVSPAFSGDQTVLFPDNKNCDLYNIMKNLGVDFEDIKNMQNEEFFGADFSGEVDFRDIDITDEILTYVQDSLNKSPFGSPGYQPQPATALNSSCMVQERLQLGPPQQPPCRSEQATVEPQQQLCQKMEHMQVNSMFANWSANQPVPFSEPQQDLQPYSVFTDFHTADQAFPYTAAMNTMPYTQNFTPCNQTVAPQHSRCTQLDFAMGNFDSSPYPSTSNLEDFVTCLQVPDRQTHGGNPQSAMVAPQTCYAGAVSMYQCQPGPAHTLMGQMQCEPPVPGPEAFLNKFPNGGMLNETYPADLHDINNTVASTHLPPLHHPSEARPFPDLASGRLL
As to the kind of experiment: Ligand binding competition assay (Aryl Hydrocarbon Receptor), [3H]TCDD displacement. Also noted: species or system female New Zealand rabbit (liver cytosol). How it is done:
Ligand binding competition assay (Aryl Hydrocarbon Receptor)
Experiments were conducted exactly as previously described by Savouret et al., (3). Briefly, binding competition was performed using female New Zealand rabbit liver cytosol as the receptor source. The cytosol was prepared at 4° C. in Hepes 20 mM pH 7.6, EDTA 1.5 mM, glycerol 10%, β-mercapto-ethanol 10 mM, with Complete protease cocktail (Roche, Meylan, France) by homogenisation in a Ultra-Turax homogenizer (Bioblock Scientific, Illkirch, France) followed with 20 strokes in a Dounce Homogenizer with the tight pestle. The homogenate was centrifuged 30 min at 20,000 g. The supernatant was centrifuged at 105,000 g for 65 min. The cytosol was aliquoted, snap-frozen in liquid nitrogen and kept at −80° C. Cytosol aliquotes (4.5 ml) were thawed on ice, diluted ten-fold in Hepes 20 mM pH 7.6, 5 mM CaCl2, containing Complete protease cocktail and 10 mM mercapto-ethanol, and recentrifuged 30 min. at 105,000 g. The cleared cytosol dilution was adjusted to 0.85 mg proteins/ml. 930 μl of diluted cytosol were preincubated with the desired amounts of unlabeled competitors in ethanol solutions for 1 hour at 4° C. Subsequently, 2,3,7,8-tetrachloro (1,6-3 H) dibenzo-p-dioxin (28 Ci/mmole) was added at 0.2 nM and incubation continued for 3 hours at 4° C. Non-displaceable binding was assessed by incubating the aliquotes with 70 μl of a 2% activated charcoal suspension in Hepes 20 mM pH 7.6 for 90 minutes at 4° C., followed by centrifugation at 15,000 g for 10 minutes. 500 μl of the supernatants were counted in 5 ml of Ultima Gold cocktail (Packard, Meridien, Conn.) in a Beckman liquid scintillation Counter (45% counting efficiency). Binding competition assays were repeated at least twice for each competitor and each point was performed in triplicate.

Series [2] has as its target T2, Estrogen Receptors extracted from MCF-7 cells (Homo sapiens, UniProt P03372).
T2 construct: Estrogen Receptors extracted from MCF-7 cells; endogenous in cells; host or cells: MCF-7 (ATCC) cytosol
T2 sequence (P03372 1-595): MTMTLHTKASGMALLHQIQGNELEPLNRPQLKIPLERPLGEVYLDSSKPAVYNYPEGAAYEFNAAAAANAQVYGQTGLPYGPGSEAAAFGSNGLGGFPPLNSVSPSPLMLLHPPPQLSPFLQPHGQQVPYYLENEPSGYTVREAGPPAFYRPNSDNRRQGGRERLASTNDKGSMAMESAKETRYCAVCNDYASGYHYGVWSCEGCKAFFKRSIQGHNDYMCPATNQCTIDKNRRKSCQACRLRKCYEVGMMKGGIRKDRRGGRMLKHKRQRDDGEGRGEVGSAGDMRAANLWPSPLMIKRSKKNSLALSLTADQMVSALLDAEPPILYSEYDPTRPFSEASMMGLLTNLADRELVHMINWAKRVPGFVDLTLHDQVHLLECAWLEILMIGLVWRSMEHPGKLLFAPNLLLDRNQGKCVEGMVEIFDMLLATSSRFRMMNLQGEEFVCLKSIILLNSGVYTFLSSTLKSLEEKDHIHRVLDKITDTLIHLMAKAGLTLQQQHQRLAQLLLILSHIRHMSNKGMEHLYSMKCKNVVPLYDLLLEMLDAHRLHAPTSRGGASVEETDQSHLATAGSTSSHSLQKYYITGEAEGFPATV
Kind of series: Ligand binding competition assay (Estrogen Receptor), [3H]Estradiol. The method, then:
Ligand Binding Competition Assay (Estrogen Receptor)
ER binding experiments were conducted using Estrogen Receptors extracted from MCF-7 cells as previously described (4). Briefly MCF-7 (from ATCC) were grown to 80% confluency in DMEM medium (GiBCO BRL) suplemented with 10% FCS. Cells were then scraped, and washed twice with PBS. After centrifugation for 10 minutes at 1500 rpm, the cells were resuspended in TM buffer (20 mM Tris, HCl pH 7.4; sodium molybdate, 20 mM). Cells were broken by freeze-thaw lysis of the cell pellets in an equal volume of TM buffer. Cytosolic receptors were prepared by a 105.000 g×60 minutes centrifugation at 0° C., and then stored at −80° C. This cytosolic receptor solution was diluted to 60% in TM buffer, and then incubated with the corresponding ligand for 18 hr at 4° C. in a volume of 100 μl with 50 μg of protein and 2 nM of [3H]Estradiol and two concentrations (1 and 10 μM) of unlabeled test ligand. Assays were terminated by loading 65 μl of the incubate on a 1.2 ml Sephadex TM LH-20 column equilibrated with the TM buffer. The flow through was collected and counted for radioactivity in ready safe scintillant (Beckman).

Broadly, the melting point is the temperature of the solid-liquid transition.

In turn, `COc1ccc(/C=C/c2cc(Cl)cc(Cl)c2)cc1` [Compound 4j, (E)-1-(4-methoxyphenyl)-2-(3,5-dichlorophenyl)-ethene] displayed a melting point of 62 to 64 °C. In addition, in series [1], the “relative binding affinity (RBA) for AhR” value is 112.0. Further, the “AhR RBA (relative binding affinity)” value in series [1] (trans-stilbenes, resveratrol = 1) is 112.0. For the same compound, in series [2], the “affinity for ER” value was “without detectable affinity”. In addition, the “ER RBA (relative binding affinity)” value in series [2] (trans-stilbenes) is listed as “N.M”.
